Measurements as given in patent US8129377B2, “6-(pyridinyl)-4-pyrimidone derivates as tau protein kinase 1 inhibitors” (Mitsubishi Tanabe Pharma Corporation, priority 2004, dated 2012).
pIC50: −log10 of the molar value.

The compounds below were run against T1, bovine cerebral TPK1 (Bos taurus, UniProt A0A3Q1MT31) (assay: Inhibitory activity against P-GS1 phosphorylation by bovine cerebral TPK1). Details: 41.7 μM [γ-32P] ATP, 25° C., 2 hours.
T1 construct: from tissue; host or cells: bovine brain (cerebrum)
Type: biochemical
Experimental: Experiment 1: Inhibitory Activity of the Medicament of the Present Invention Against P-GS1 Phosphorylation by Bovine Cerebral TPK1
A mixture containing 100 mM MES-sodium hydroxide (pH 6.5), 1 mM magnesium acetate, 0.5 mM EGTA, 5 mM β-mercaptoethanol, 0.02% Tween 20, 10% glycerol, 12 μg/ml P-GS1, 41.7 μM [γ^−32P] ATP (68 kBq/ml), bovine cerebral TPK1 and a compound shown in Table (a final mixture contained 1.7% DMSO deriving from a solution of a test compound prepared in the presence of 10% DMSO) was used as a reaction system. The phosphorylation was started by adding ATP, and the reaction was conducted at 25° C. for 2 hours, and then stopped by adding 21% perchloric acid on ice cooling. The reaction mixture was centrifuged at 12,000 rpm for 5 minutes and adsorbed on P81 paper (Whatmann), and then the paper was washed four times with 75 mM phosphoric acid, three times with water and once with acetone. The paper was dried, and the residual radioactivity was measured using a liquid scintillation counter.

T1 sequence (A0A3Q1MT31 1-419): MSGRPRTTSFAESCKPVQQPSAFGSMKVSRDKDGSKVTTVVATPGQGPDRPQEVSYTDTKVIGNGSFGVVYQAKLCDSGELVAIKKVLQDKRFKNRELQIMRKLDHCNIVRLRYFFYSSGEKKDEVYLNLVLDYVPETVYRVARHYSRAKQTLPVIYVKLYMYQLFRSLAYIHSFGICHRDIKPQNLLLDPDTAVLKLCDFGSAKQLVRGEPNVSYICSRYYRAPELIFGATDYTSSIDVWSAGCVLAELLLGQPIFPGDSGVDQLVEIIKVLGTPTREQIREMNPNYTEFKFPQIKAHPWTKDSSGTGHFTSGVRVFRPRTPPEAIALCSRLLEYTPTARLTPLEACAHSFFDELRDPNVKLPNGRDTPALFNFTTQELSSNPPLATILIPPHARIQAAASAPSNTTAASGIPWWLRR

pIC50	Compound
8.54	Cc1nc(-c2ccc([C@H]3CN(c4nc(-c5ccncc5F)cc(=O)n4C)CCN3)cc2)no1 [compound 334, 6-(3-Fluoropyridin-4-yl)-3-methyl-2-((3S)-3-(4-(5-methyl-[1,2,4]oxadiazol-3-yl)phenyl)piperazin-1-yl)-3H-pyrimidin-4-one]
9.29	Cc1cc(C2CN(c3nc(-c4ccncc4F)cc(=O)n3C)CCO2)ccc1Br (stereo not drawn) [compound 210]
7.96	CN(C)C(=O)Nc1ccc([C@H]2CN(c3nc(-c4ccncc4F)cc(=O)n3C)CCO2)cc1 [compound 298, N′-(4-((2S)-4-(6-(3-Fluoropyridin-4-yl)-3-methyl-4-oxo-3H-pyrimidin-2-yl)morpholin-2-yl)phenyl)-N,N-dimethylurea]
8.92	COC(=O)Nc1ccc([C@H]2CN(c3nc(-c4ccncc4F)cc(=O)n3C)CCO2)cc1 [compound 295, Methyl (4-((2S)-4-(6-(3-fluoropyridin-4-yl)-3-methyl-4-oxo-3H-pyrimidin-2-yl)morpholin-2-yl)phenyl)carbamate]
8.77	Cn1c(N2CCO[C@@H](c3ccc(N4CCC(N5CCCC5)CC4)cc3)C2)nc(-c2ccncc2F)cc1=O [compound 17]
8.19	CC(=O)N1CCC(Oc2ccc([C@H]3CN(c4nc(-c5ccncc5F)cc(=O)n4C)CCO3)cc2)CC1 [compound 238, 2-((2S)-2-(4-(1-Acetylpiperidin-4-yloxy)phenyl)morpholin-4-yl)-6-(3-fluoropyridin-4-yl)-3-methyl-pyrimidin-4-one]
8.54	Cn1c(N2CCO[C@@H](c3ccc(N)cc3)C2)nc(-c2ccncc2F)cc1=O [compound 158, 2-((2S)-2-(4-Aminophenyl)morpholin-4-yl)-6-(3-fluoropyridin-4-yl)-3-methyl-3H-pyrimidin-4-one]
8.92	CC(C)Oc1ccc(-c2ccc([C@H]3CN(c4nc(-c5ccncc5F)cc(=O)n4C)CCN3)cc2)cc1 [compound 92]
8.10	Cn1c(N2CCO[C@@H](c3cc4ccccc4o3)C2)nc(-c2ccncc2F)cc1=O [compound 4]
9.57	CN(C)CC(=O)Nc1ccc([C@H]2CN(c3nc(-c4ccncc4F)cc(=O)n3C)CCO2)cc1 [compound 288, N^2,N^2-Dimethyl-N^1-(4-((2S)-4-(3-methyl-4-oxo-3,4-dihydro-6-(3-fluoropyridin-4-yl)pyrimidin-2-yl)morpholin-2-yl)phenyl)glycinamide]
8.41	CN(c1ccc([C@H]2CN(c3nc(-c4ccncc4F)cc(=O)n3C)CCO2)cc1)[C@@H]1CCOC1 [compound 221, 6-(3-Fluoropyridin-4-yl)-2-((2S)-2-(4-(N-methyl-N-((3R)-tetrahydrofuran-3yl)amino)phenyl)morpholin-4-yl)-3-methyl-3H-pyrimidin-4-one]
8.96	Cn1c(N2CCO[C@@H](c3ccc(OCCN4CCOCC4)cc3)C2)nc(-c2ccncc2F)cc1=O [compound 224]
8.57	Cn1c(N2CCO[C@@H](c3ccc(N[C@@H]4CCOC4)cc3)C2)nc(-c2ccncc2F)cc1=O [compound 220, 2-((2S)-2-(4-(N-((3R)-Tetrahydrofuran-3-yl)amino)phenyl)morpholin-4-yl)-3-methyl-6-(3-fluoropyridin-4-yl)-3H-pyrimidin-4-one]
8.09	Cn1c(N2CCC(Nc3cccc(C(F)(F)F)c3)CC2)nc(-c2ccncc2F)cc1=O [compound 105]
8.43	Cn1c(N2CCN[C@@H](c3ccc(N4CCCCC4)cc3)C2)nc(-c2ccncc2F)cc1=O [compound 14, 6-(3-Fluoro-pyridin-4-yl)-3-methyl-2-((3S)-3-(4-piperidin-1-yl-phenyl)-piperazin-1-yl)-3H-pyrimidin-4-one]
8.85	Cn1c(N2CCO[C@@H](c3c(F)cccc3Cl)C2)nc(-c2ccncc2F)cc1=O [compound 5]
8.21	Cn1c(N2CCC[C@H](c3ccc(Br)cc3)C2)nc(-c2ccncc2F)cc1=O [compound 303, 2-((3R)-3-(4-Bromophenyl)piperidin-1-yl)-6-(3-fluoropyridin-4-yl)-3-methyl-3H-pyrimidine-4-one]
8.19	Cn1c(N2CCC(c3ccc(N4CCCC4)cc3)CC2)nc(-c2ccncc2F)cc1=O [compound 56]
9.32	COc1ccc(NC(C)=O)cc1[C@H]1CN(c2nc(-c3ccncc3F)cc(=O)n2C)CCO1 [compound 313]
8.13	Cn1c(N2CCO[C@@H](c3ccc(C(=O)N4CCOCC4)cc3)C2)nc(-c2ccncc2F)cc1=O [compound 310]
8.32	Cn1c(N2CCN[C@@H](c3ccc(-c4ncon4)cc3)C2)nc(-c2ccncc2F)cc1=O [compound 322, 6-(3-Fluoropyridin-4-yl)-3-methyl-2-((3S)-3-(4-([1,2,4]oxadiazol-3-yl)phenyl)piperazin-1-yl)-3H-pyrimidin-4-one]
8.66	Cn1c(N2CCO[C@@H](c3ccc(NC(=O)C4CCCCC4)cc3)C2)nc(-c2ccncc2F)cc1=O [compound 209]
7.89	COc1cc(Cl)ccc1[C@H]1CN(c2nc(-c3ccncc3Cl)cc(=O)n2C)CCO1 [compound 247]
9.28	Cn1c(N2CCN[C@@H](c3ccc(N4CCN(c5ccccc5)CC4)cc3)C2)nc(-c2ccncc2F)cc1=O [compound 22]
8.38	Cn1c(N2CCO[C@@H](c3ccc(NC(=O)C(C)(C)C)cc3)C2)nc(-c2ccncc2F)cc1=O [compound 215]
8.92	Cn1c(N2CCOC(c3ccc4c(c3)CCC(=O)N4)C2)nc(-c2ccncc2F)cc1=O (stereo not drawn) [compound 305]
7.89	CNc1cc(-c2cc(=O)n(C)c(N3CCO[C@@H](c4cc(C#N)ccc4OC)C3)n2)ccn1 [compound 196]
8.27	CN(c1ccc([C@H]2CN(c3nc(-c4ccncc4F)cc(=O)n3C)CCO2)cc1)c1ccccn1 [compound 212]
8.39	CC(=O)Nc1cccc([C@H]2CN(c3nc(-c4ccncc4F)cc(=O)n3C)CCO2)c1 [compound 314]
9.14	COc1ccc(-c2ccc([C@H]3CN(c4nc(-c5ccncc5F)cc(=O)n4C)CCN3)cc2)cc1 [compound 41]
